Test results reported in paper PMC9143003, “Neutrophil Immunomodulatory Activity of Farnesene, a Component of Artemisia dracunculus Essential Oils” (Pharmaceuticals, 2022).
Where two headings read alike, the source gives them in different places. One block for each compound: values may come before it.

How the values were obtained:
[1] = system: WKYMVM-stimulated human neutrophils (FPR2 agonist WKYMVM); assay: Inhibition of WKYMVM-induced [Ca2+]i; type: cell-based; settings: pure compounds, 10 min pretreatment, 5 nM WKYMVM, read-out: Inhibition of [Ca^2+]i WKYMVM-Induced IC50
From the text: (§1) We obtained human neutrophils using blood collected from healthy donors. Blood collection was approved by the Institutional Review Board at Montana State University (Protocol #MQ041017). Neutrophils were isolated as described previously. The isolated neutrophils were resuspended in HBSS^–. Neutrophil preparations were routinely >95% pure and >98% viable, as determined by light microscopy and trypan blue exclusion, respectively.
(§2) Changes in intracellular Ca^2+ concentrations ([Ca^2+]i) were monitored with a FlexStation 3 (Molecular Devices, Sunnyvale, CA, USA). For these assays, neutrophils were loaded with 1.25 μg/mL Fluo-4AM and incubated in the dark at 37 °C for 30 min. The cells were then washed with HBSS^-. The dye-loaded cells were resuspended in HBSS^+ and pipetted into the wells of black microtiter plates at 2 × 10^5 cells/well. To measure the direct effects of samples on [Ca^2+]i, the test samples were added to the wells (final concentration of DMSO was 1%), and fluorescence was monitored (λex = 485 nm, λem = 538 nm). Changes in fluorescence were monitored every 5 s at room temperature for 240 s. To evaluate the inhibitory effects of the test samples, the samples were added to the wells and incubated for 10 min, with the subsequent addition of 5 nM fMLF, 5 nM WKYMVM, or 25 nM IL-8. Responses were normalized to the response induced by control 5 nM fMLF, 5 nM WKYMVM, or 25 nM IL-8 alone without pretreatment. These responses were assigned as 100%. To calculate median effective concentrations (EC50 or IC50), we used curve fitting (at least five or six points) and nonlinear regression analysis of the dose–response curves. Curve fitting was performed with Prism 9 (GraphPad Software, Inc., San Diego, CA, USA).

human neutrophils [2] = assay: Cytotoxicity assay (CellTiter-Glo), neutrophils; settings: pure compounds, 90 min incubation, no cytotoxicity = IC50 > 55 µM
Experimental: We analyze cytotoxicity in human neutrophils or THP-1 monocytic cells. Cytotoxicity was analyzed using a CellTiter-Glo Luminescent Cell Viability Assay Kit (Promega, Madison, WI, USA). Briefly, the cells were incubated (10^4 cells/well) with the indicated concentrations of essential oil or compound for 90 min (for neutrophils) or 24 h (for THP-1 cells) at 37 °C/5% CO2. After incubation, we added substrate. The samples were analyzed using a Fluoroscan Ascent FL microplate reader.

[3] = system: fMLF-stimulated human neutrophils (FPR1 agonist fMLF); assay: Inhibition of fMLF-induced [Ca2+]i; type: cell-based; settings: pure compounds, 10 min pretreatment, 5 nM fMLF, read-out: Inhibition of [Ca^2+]i fMLF-Induced IC50
From the text: as §1, §2

human neutrophils [4] = assay: Ca2+ mobilization assay, direct activation of [Ca2+]i; type: cell-based; settings: pure compounds; for EC50: human neutrophils, mean ± SD of three experiments, read-out: Activation of [Ca^2+]i EC50; for Effect on human neutrophil Ca^2+ flux (in words): direct effect
From the text: as §1, §2

human neutrophils [5] = assay: Chemotaxis assay toward fMLF (ChemoTx chambers); type: cell-based; settings: pure compounds, 30 min pretreatment, 1 nM fMLF; for IC50: read-out: Inhibition of fMLF-induced neutrophil chemotaxis IC50
From the text: as §1
To evaluate effects of samples on neutrophil migration, we resuspended neutrophils in HBSS^+ containing 2% (v/v) heat-inactivated FBS (2 × 10^6 cells/mL). We analyzed chemotaxis using 96-well ChemoTx chambers (Neuroprobe, Gaithersburg, MD). The neutrophils were first preincubated with the indicated concentrations of test samples at room temperature for 30 min. The pretreated cells were then pipetted into the chamber upper wells (4 × 10^4 cells/well). The lower wells contained 30 µL of HBSS^+ with 2% (v/v) heat-inactivated FBS, the indicated test samples or control 1% DMSO, and 1 nM fMLF as the chemoattractant. Three lower wells were reserved for background controls (DMSO treated cells in the upper wells and DMSO without fMLF in the lower wells). We allowed the cells to migrate through the polycarbonate membrane filter for 60 min at 37 °C/5% CO2. We determined the number of migrated cells by measuring ATP in lysates of transmigrated cells and comparing this to a standard curve obtained with known neutrophil numbers, as described previously. Calculation of median effective concentrations (IC50) was performed by nonlinear regression analysis of the dose-response curves.

[6] = system: human THP-1 monocytic cells; assay: Cytotoxicity assay (CellTiter-Glo), THP-1; type: cell-based
Experimental: Human THP-1 monocytic cells obtained from ATCC (Manassas, VA, USA) were cultured in RPMI 1640 medium (Mediatech Inc., Herndon, VA, USA) supplemented with 10% (v/v) FBS, 100 μg/mL streptomycin, and 100 U/mL penicillin. […] After incubation, we added substrate.

human neutrophils [7] = system: human neutrophils; parameters: method as in PMID 27586050, PMID 25959257; settings: previous analysis; cited from earlier work
FPR1 = system: FPR1; parameters: method as in PMID 16972170, PMID 11211928, PMID 11853704; settings: cited from earlier work
[8] = system: IL-8-stimulated human neutrophils; assay: Inhibition of IL-8-induced [Ca2+]i; type: cell-based; settings: 10 min pretreatment, 25 nM human IL-8; read-out: Inhibition of IL-8 induced neutrophil [Ca^2+]i IC50
From the text: as §1
as §2, with “Responses were normalized to the response induced by control 5 nM fMLF, 5 nM WKYMVM, or 25 nM IL-8 alone without pretreatment. These responses were assigned as 100%. To calculate median effective concentrations (EC50 or IC50), we used curve fitting (at least five or six points) and nonlinear regression analysis of the dose–response curves. Curve fitting was performed with Prism 9 (GraphPad Software, Inc., San Diego, CA, USA).” left out

IC50 ([1]; Homo sapiens, Neutrophil): > 55 µM
IC50 ([3]; Homo sapiens, Neutrophil): > 55 µM
EC50 (human neutrophils [4]; Neutrophil): > 55 µM
Compound: CC12CCC(CC1)C(C)(C)O2 [1,8-Cineole]
Cytotoxicity (human neutrophils [2]): Nontoxic
Effect on human neutrophil Ca^2+ flux (in words) (human neutrophils [4]): did not affect human neutrophil Ca^2+ flux

IC50 [1]: > 55 µM
IC50 [3]: > 55 µM
EC50 (human neutrophils [4]): > 55 µM
Compound: CC12CCC(CC1=O)C2(C)C (stereo not drawn) [(+)-Camphor]
Effect on human neutrophil Ca^2+ flux (in words) (human neutrophils [4]): did not affect human neutrophil Ca^2+ flux

IC50 ([1]; Homo sapiens, Neutrophil): > 55 µM
IC50 ([3]; Homo sapiens, Neutrophil): > 55 µM
EC50 (human neutrophils [4]; Neutrophil): > 55 µM
Compound: CC1(C)[C@H]2CC[C@]1(C)C(=O)C2 [(−)-Camphor]
Cytotoxicity (human neutrophils [2]): Nontoxic
Effect on human neutrophil Ca^2+ flux (in words) (human neutrophils [4]): did not affect human neutrophil Ca^2+ flux

IC50 ([1]; Homo sapiens, Neutrophil): > 55 µM
IC50 ([3]; Homo sapiens, Neutrophil): > 55 µM
EC50 (human neutrophils [4]; Neutrophil): > 55 µM
Compound: CC1=CC(=O)C(C(C)C)CC1 (centres unmarked) [Piperitone]
Cytotoxicity (human neutrophils [2]): Nontoxic
Effect on human neutrophil Ca^2+ flux (in words) (human neutrophils [4]): did not affect human neutrophil Ca^2+ flux

IC50 ([1]; Homo sapiens, Neutrophil): 52.7 ± 11.2 µM
Inhibition of fMLF-induced neutrophil chemotaxis IC50 (human neutrophils [5]): did not affect this response
IC50 ([3]; Homo sapiens, Neutrophil): 27.2 ± 6.6 µM
EC50 (human neutrophils [4]; Neutrophil): 53.3 ± 5 µM
Compound: COc1cc(O)c(C(C)=O)c(OC)c1 [Xanthoxylin]
Cytotoxicity (human neutrophils [2]): Nontoxic
Effect on human neutrophil Ca^2+ flux (in words) (human neutrophils [4]): weak activators
Viability of human THP-1 monocytic cells ([6]; 24 h incubation): did not affect the viability

Compound: C=C1C2CCC(C2)C1(C)C (centres unmarked) [camphene]
Effect on human neutrophil [Ca^2+]i (in words) (human neutrophils [7]): no effect

Compound: C[C@H](CCC(=O)O)[C@H]1CC[C@H]2[C@@H]3[C@H](O)C[C@@H]4C[C@H](O)CC[C@]4(C)[C@H]3CC[C@]12C [chenodeoxycholic acid]
Concentrations at which FPR1 is antagonized (FPR1): > 100 µM

Compound: C[C@H](CCC(=O)O)[C@H]1CC[C@H]2[C@@H]3CC[C@@H]4C[C@H](O)CC[C@]4(C)[C@H]3C[C@H](O)[C@]12C [deoxycholic acid]
Concentrations at which FPR1 is antagonized (FPR1): > 100 µM

Compound: C=CC(C)(O)CCC=C(C)C (centres unmarked) [linalool]
Effect on human neutrophil [Ca^2+]i (in words) (human neutrophils [7]): no effect

Compound: C=CCc1ccc(OC)cc1 [methyl chavicol]
Effect on human neutrophil [Ca^2+]i (in words) (human neutrophils [7]): no effect

Compound: C=CCc1ccc(OC)c(OC)c1 [methyl eugenol]
Effect on human neutrophil [Ca^2+]i (in words) (human neutrophils [7]): no effect

Compound: Cc1ccc(C(C)(C)O)cc1 [p-cymen-8-ol]
Effect on human neutrophil [Ca^2+]i (in words) (human neutrophils [7]): no effect

Compound: Cc1ccc(C(C)C)cc1 [p-cymene]
Effect on human neutrophil [Ca^2+]i (in words) (human neutrophils [7]): no effect

Compound: CC1=CCC(O)(C(C)C)CC1 (centres unmarked) [terpinen-4-ol]
Effect on human neutrophil [Ca^2+]i (in words) (human neutrophils [7]): no effect

Compound: CC1=CCC(=C(C)C)CC1 [terpinolene]
Effect on human neutrophil [Ca^2+]i (in words) (human neutrophils [7]): no effect

Compound: CC1=CCC2CC1C2(C)C (stereo not drawn) [α-pinene]
Effect on human neutrophil [Ca^2+]i (in words) (human neutrophils [7]): no effect

IC50 [1]: 19.1 ± 0.1 µM
IC50 (human neutrophils [5]): 11.9 ± 1.9 µM
IC50 [3]: 42.6 ± 9.7 µM
EC50 (human neutrophils [4]): 50.1 ± 11.5 µM
Compound: (±)-Bornyl acetate
Effect on human neutrophil Ca^2+ flux (in words) (human neutrophils [4]): weak activators
Viability of human THP-1 monocytic cells [6]: did not affect the viability

IC50 [1]: 1.4 ± 0.5 µM
IC50 (human neutrophils [5]): 3.3 ± 1.4 µM
IC50 [8]: 2.6 µM
IC50 [3]: 1.1 ± 0.2 µM
EC50 (human neutrophils [4]): 28.5 ± 2.6 µM
Compound: Farnesene
Effect on human neutrophil Ca^2+ flux (in words) (human neutrophils [4]): weak activators
Viability of human THP-1 monocytic cells [6]: did not affect the viability
